Experimental data reported in patent EP3516395B1, “METHOD FOR DETERMINING AFFINITY BETWEEN LIGANDS AND A TARGET” (Plant Advanced Technologies Pat, priority 2016, dated 2018).

System: tyrosinase de champignon
Experiment: Relative affinity by competitive binding, ultrafiltration and UPLC-MS/UV (Example 1)
Conditions: equimolar ligands; for Facteur de normalisation, solution traitée: NFTB, peak area UV 270 nm relative to reference ligand moracénine B; for Affinités relatives: RA = NFTB/NFeq, reference ligand moracénine B
Procedure: Une solution de travail de tyrosinase de champignon à 1.25 mg/mL est préparée en dissolvant de la poudre de l'enzyme lyophilisée dans 50 mM d'acétate d'ammonium, avec un pH de 7.0. L'échantillon est préparé en utilisant l'un des solvants suivants : des glycols, DMSO (diméthylsulfoxide), l'éthanol, pur ou en solution dans l'eau. La concentration dans l'échantillon des ligands initiaux est équimolaire et doit être dans la gamme de 0,75 à 1 mM. Les ligands choisis étaient des inhibiteurs connus de la tyrosinase isolés depuis des racines de murier noir (Morus nigra) : la moracénine A, moracénine B et la kuwanone C. Un échantillon de référence est préparé également en diluant l'échantillon de 10 à 20 fois dans une solution d'eau et d'un quart de volume d'acétonitrile.
• 1. Étape de préconditionnement - Des puits à membrane filtrante sont pré-conditionnées avec un volume de 500 µl d'une solution à 85% d'acétate d'ammonium et 15% d'éthanol qui est passé à travers la membrane avec une centrifugation de 14000 g pendant 60 secondes. • 2. Étape de liaison - La préparation de tyrosinase (1.25 mg/mL, 75 µL) est mélangée avec 5 µl de l'échantillon dans un tube d'Eppendorf en plastique, puis est incubée pendant 5 min. Dans ce mélange, on a 9,16 µM de tyrosinase et une gamme de 46,88 µM à 62,5 µM de ligands (moracénine A, moracénine B et kuwanone C) soit un ratio ligands/cible allant de 5,12 à 6,83. • 3. Étape de lavage - le mélange de l'enzyme et de l'échantillon est déposé dans un puits préconditionné à l'étape de préconditionnement, puis centrifugé à 14000 g jusqu'à l'élimination de l'essentiel du solvant. Les complexes enzyme-ligands restent à la surface de la membrane du filtre puis sont à nouveau suspendu dans un volume de 100 µL de la même solution à 85% d'acétate d'ammonium et 15% d'éthanol et centrifugé à 14000 g jusqu'à élimination du solvant. Cette procédure est répétée trois fois et élimine tous les composés qui ne sont pas liés à l'enzyme. • 4. Étape de séparation - Les complexes enzyme-ligands retenus dans le filtre sont à nouveau suspendus dans un volume de 10 µL d'eau ultra-pure, puis sont mélangés avec un volume de 40 µL d'acétonitrile pour dénaturer et précipiter l'enzyme et, en même temps libérer les ligands. Le mélange est centrifugé à 21000 g pendant 10 min pour séparer le précipité du surnageant. • 5. Étape d'analyse - Ledit surnageant formant la solution traitée est analysé par chromatographie en phase liquide couplée à une spectrométrie de masse, connue également par l'acronyme UPLC-MS. L'échantillon de référence est analysé également de la même manière, en utilisant les mêmes conditions d'analyse. Les affinités relatives sont calculées selon la méthode décrite ci-après. De préférence, l'échantillon de référence et la solution traitée sont analysés séquentiellement pour éliminer des dispersions dues aux réglages de l'appareillage.
Une analyse par chromatographie en phase liquide fournit un chromatogramme tel que montré par les figures 1 et 2. Le chromatogramme représente une intensité de signal en fonction du temps de rétention dans une colonne. Le signal présente différents pics d'intensité variable. Chaque pic est associé à l'un des ligands présent dans l'échantillon et la solution traitée. • 1. Normalisation de l'intensité du signal analytique pour les ligands dans l'échantillon de référence. Pour chaque chaque ligand CEi dans l'échantillon de référence, on établit des facteurs de normalisation NFeq dudit ligand CEi par comparaison au ligand de référence REF, selon l'équation suivante : NFeq,CEi = (ISeq,CEi)/(ISeq,REF) [formula] où : • NF est un facteur de normalisation; • ISeq,CEi est l'intensité du signal analytique pour le ligand CEi dans l'échantillon; • ISeq,REF est l'intensité du signal analytique pour le ligand de référence REF dans l'échantillon. L'intensité peut être choisie parmi l'aire du pic ou la valeur maximale du pic. Le facteur de normalisation du ligand de référence vaut toujours 1. • 2. […]

Compound | Facteur de normalisation, solution traitée | Affinités relatives
CC(C)=CCc1c(-c2ccc(O)cc2O)oc2c(CC=C(C)C)c(O)cc(O)c2c1=O [kuwanone C] | 0,78 | 1,07
moracénine B | 1,00 | 1,00
